The results in this text go back to patent US10711247B2, “Method for reducing pluripotent stem cells, method for producing cell population having reduced pluripotent stem cells” (TOKYO WOMEN'S MEDICAL UNIVERSITY, priority 2015, dated 2020).

Like-named read-outs stand apart in the source and are kept apart here.

The test system of data set [1] is feeder-less iPS cells.
Protocol: (§1) FIGS. 8A and 8B indicate the results of culturing iPS cells cultured on laminin E8 fragments following the addition of capsaicin. Vehicle-1 represents the control used in the experiment in which capsaicin was added at 2×10^−4 M, Vehicle-2 represents the control used in the experiment in which capsaicin was added at 1×10^−4 M, and Vehicle-3 represents the control used in the experiment in which capsaicin was added at 1×10^−5 M. The upper panels in FIG. 8A indicates phase-contrast images and the bars represent 100 μm. The middle panels indicate Hoechst staining images and the bars represent 200 μm. The lower panels indicate montage images of 36 fields (6×6) of the Hoechst staining images. FIG. 8B is a graph indicating the numbers of cells in 36 fields under each condition.
(§2) Human iPS cell lines 253G1 and 2017 were purchased from RIKEN (Ibaraki, Japan). Transfer of human iPS cell line 1231A3 was received from Kyoto University.
Data set [2] deals with feeder-less iPS cells. Briefly: feeder-less iPS cells cultured with TRPV-1 agonists, number of cells in 36 fields (Hoechst staining). The following applies: feeder-less iPS cells on laminin E8 fragments.
Protocol: as §1, §2
For data set [3], the system named is iPS cell-derived cardiomyocytes. Briefly: iPS cell-derived cardiomyocytes cultured in medium containing capsaicin. In kind it is cell-based, human. The method, then:
Prior to seeding the cells, the surface of a temperature-responsive culture dish (Upcell®, CellSeed Inc., Tokyo, Japan) or cell culture dish (Corning, Inc., Corning, N.Y., USA) was coated with fetal bovine serum (FBS) for 2 hours. After the iPS cells were induced to differentiate into cardiomyocytes, the cells were detached using 0.05% trypsin/EDTA and the cell aggregates were broken up into single cells using a strainer (BD Biosciences, Inc., San Jose, Calif., USA), followed by seeding in a culture dish at 2.1×10^5 cells/cm^2 using DMEM medium (Sigma-Aldrich Corp., St. Louis, Mo., USA) containing 10% FBS and culturing in a humidified atmosphere at 37° C. and 5% CO2. In several of the experiments, the cells were treated with puromycin (Sigma-Aldrich Corp., 1.5 μg/mL) for 1 day to purify the iPS cell-derived cardiomyocytes (strain 201B7, αMHC-puro/Rex1-neo).

In the case of `CCCCCCCC/C=C\CCCCCCCC(=O)NCCc1ccc(O)c(O)c1` [OLDA, N-oleoyldopamine], the “cytotoxic activity against iPS cells” value with feeder-less iPS cells [1] was “demonstrated cytotoxic activity against iPS cells”. Consider `CCCCC/C=C\C/C=C\C/C=C\C/C=C\CCCC(=O)NCc1ccc(O)c(OC)c1` [arvanil], for which the “cytotoxic activity against iPS cells” value in the data set with feeder-less iPS cells [2] (FIGS. 9 and 10) is listed as “demonstrated cytotoxic activity against iPS cells”. `COc1cc(CNC(=O)CCCC/C=C/C(C)C)ccc1O` [capsaicin]: in the data set with feeder-less iPS cells [2] (capsaicin 2×10^−4 M, 1×10^−4 M, 1×10^−5 M vs vehicle (FIGS. 8A and 8B)), the number of cells result was “significantly decreased concentration-dependently”. The “independent pulsation of the cardiomyocytes” value in data set [3] (capsaicin 200 μM and 100 μM (concentrations toxic to iPS cells)) is on record as “maintained”. Also, the “numbers of Nkx2.5-positive cells” value in data set [3] (capsaicin 200 μM and 100 μM, compared with vehicle (FIGS. 8C and 8D)) is “no changes”.
